Results: paper PMC8243516, “Inhibition of lysosomal phospholipase A2 predicts drug-induced phospholipidosis” (Journal of Lipid Research, 2021)
Read-outs that look alike come from different tables or passages of the source.

Experiments:
phospholipidosis [1] = conditions: phospholipidosis reported in vitro; Refs of Table 1; cited from earlier work
phospholipidosis [2] = conditions: phospholipidosis reported in vivo, species codes; Refs of Table 1; cited from earlier work
MDCK cells = experiment: Screening phospholipidosis assay (LipidTOX Red / NucBlue Live fluorescence ratio); conditions: for Ratio (15 μM): LipidTOX Red to NucBlue Live fluorescence ratio, 24 h
[3] = cited from earlier work
LPLA2 = molecular target: T1, LPLA2 (Mus musculus, UniProt Q8VEB4); experiment: LPLA2 thermal stability measurement (SYPRO Orange Tm); assay type: binding
T1 construct: purchased Proteos Inc. (Kalamazoo, MI)
T1 sequence (Q8VEB4 34-412): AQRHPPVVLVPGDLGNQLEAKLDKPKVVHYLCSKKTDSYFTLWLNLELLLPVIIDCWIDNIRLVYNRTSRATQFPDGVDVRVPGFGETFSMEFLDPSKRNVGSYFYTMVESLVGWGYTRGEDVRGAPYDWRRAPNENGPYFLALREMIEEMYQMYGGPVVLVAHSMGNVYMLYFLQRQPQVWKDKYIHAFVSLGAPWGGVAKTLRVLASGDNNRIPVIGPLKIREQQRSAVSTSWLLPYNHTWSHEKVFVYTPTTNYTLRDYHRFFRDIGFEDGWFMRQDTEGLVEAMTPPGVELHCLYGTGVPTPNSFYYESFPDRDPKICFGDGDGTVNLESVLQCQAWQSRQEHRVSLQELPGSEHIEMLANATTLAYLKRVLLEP

[4] = molecular target: T2, recombinant mouse LPLA2 (PLA2G15) (Mus musculus, UniProt Q8VEB4); experiment: Transacylase activity of LPLA2 (1-O-acyl-N-acetylsphingosine synthase, cell-free liposome assay); assay type: biochemical
T2 construct: purchased Proteos Inc. (Kalamazoo, MI)
T2 sequence (Q8VEB4 34-412): T1 sequence (Q8VEB4 34-412)

[5] = ref Pubchem and chEMBL database
[6] = LPLA2 dependent 1-O-acyl N-acetylsphingosine synthase activity, read-out: LPLA2 IC50
[7] = ref Pubchem and chEMBL databases
[8] = 1-O-acyl N-acetylsphingosine synthase activity, pH 4.5, DOPC/sulfatide liposomes, read-out: LPLA2 IC50

SMILES | Ratio (15 μM) (MDCK cells) | pKa (basic) [3, 5] | (ΔTm)c-(ΔTm)d, difference in melting temperature of LPLA2 alone or in the presence of drug (LPLA2; N=3 ± SD) | IC50 [4, 6] | further results
CCCCc1oc2ccccc2c1C(=O)c1cc(I)c(OCCN(CC)CC)c(I)c1 [Amiodarone, {2-[4-(2-butyl-1-benzofuran-3-carbonyl)-2,6-diiodophenoxy]ethyl} diethyl amine] |  |  |  |  | In Vitro PLD (phospholipidosis [1]): Yes; In Vivo PLD (phospholipidosis [2]): H,R
CCN1CCCC1CNC(=O)c1cc(S(=O)(=O)CC)c(N)cc1OC (stereo not drawn) [Amisulpride] | 0.08 | 7.05 | 0 °C | 1920 µM | 
CCc1oc2ccccc2c1C(=O)c1cc(Br)c(O)c(Br)c1 [Benzbromarone, 2,6-dibromo-4-(2-ethyl-1-benzofuran-3-carbonyl)phenol] | 0.5 |  |  |  | In Vitro PLD (phospholipidosis [1]): Yes; pKa (basic) [3, 7]: -3.8; (ΔTm)c-(ΔTm)d, difference in melting temperature of LPLA2 alone or in the presence of drug (LPLA2): -1.40 ± 0.3 °C; IC50 ([4]; LPLA2 IC50, 1-O-acyl N-acetylsphingosine synthase activity, pH 4.5, DOPC/sulfatide liposomes): 3.8 µM
CN(Cc1ccc(C(C)(C)C)cc1)Cc1cccc2ccccc12 [Butenafine] | 0.31 | 9.23 | -2.22 ± 0.3 °C | 41.2 µM | 
NC(=O)N1c2ccccc2C=Cc2ccccc21 [Carbamazepine] | 0.18 | -3.8 | -1.26 ± 0.1 °C | 106 µM | 
CCOC(=O)COc1ccc2c(C)c(CCN(CC)CC)c(=O)oc2c1Cl [Cloricromen] | 0.1 | 9.1 | 0.24 ± 0.1 °C | 285 µM | 
COc1cc(C(=O)OCCCN2CCCN(CCCOC(=O)c3cc(OC)c(OC)c(OC)c3)CC2)cc(OC)c1OC [Dilazep] | 1.17 | 9.54 | 0.11 ± 0.1 °C | 59.8 µM | 
COc1ccc(C(=O)Nc2ccccc2CCC2CCCCN2C)cc1 (stereo not drawn) [Encainide, 4-methoxy-N-{2-[2-(1-methylpiperidin-2-yl)ethyl]phenyl} benzamide] | 0.23 |  | -0.76 ± 0.1 °C |  | In Vitro PLD (phospholipidosis [1]): Yes; pKa (basic) [3, 7]: 9.41; IC50 [4, 8]: 76.1 µM
O=C(O)[C@@H]1C[C@@H](C2CCCCC2)CN1C(=O)CP(=O)(O)CCCCc1ccccc1 [Fosinoprilat] | 0.19 | -4.7 | -1.45 ± 0.9 °C | 5.76 µM | Signal in the LipidTOX assay (in words) (MDCK cells): positive signal; IC50 [4, 8]: 5.8 µM
C[C@]12CC[C@@H]3c4ccc(O)cc4C[C@@H](CCCCCCCCC[S+]([O-])CCCC(F)(F)C(F)(F)F)[C@H]3[C@@H]1CC[C@@H]2O (stereo partly drawn) [Fulvestrant] | 0.37 | -0.88 | -1.05 ± 4.0 °C | 61.8 µM | 
CC(=O)O[C@H]1C[C@@]2(C)[C@@H](C[C@@H](O)[C@H]3[C@@]4(C)CC[C@@H](O)[C@@H](C)[C@@H]4CC[C@@]32C)/C1=C(\CCC=C(C)C)C(=O)O [Fuscidic acid] | 0.23 | -0.2 | 0.94 ± 0.1 °C | 231 µM | 
NNc1nncc2ccccc12 [Hydralazine] | 0.6 | 6.4 | 1.20 ± 0.1 °C | 100 µM | 
OCCOCCN1CCN(C(c2ccccc2)c2ccc(Cl)cc2)CC1 (stereo not drawn) [Hydroxyzine, 2-(2-{4-[(4-chlorophenyl) (phenyl)methyl]piperazin-1-yl}ethoxy)ethan-1-ol] |  |  | -0.10 ± 0.0 °C |  | In Vivo PLD (phospholipidosis [2]): R; pKa (basic) [3, 7]: 7.82; IC50 [4, 8]: 63 µM
CC(C)Cn1cnc2c(N)nc3ccccc3c21 [Imiquimod] | 0.07 | 5.01 | 0.66 ± 0.2 °C | 160 µM | 
CNCCCC12CCC(c3ccccc31)c1ccccc12 [Maprotiline, methyl(3-{tetracyclo [6.6.2.0^2,^7.0^9,^14]hexadeca-2,4,6,9,11, 13-hexaen-1-yl}propyl)amine] |  |  |  |  | In Vivo PLD (phospholipidosis [2]): R; pKa (basic) [3, 7]: 10.54
COc1ccc2[nH]cc(CCNC(C)=O)c2c1 [Melatonin] | 0.26 | -1.6 | 0.15 ± 0.1 °C | 38 µM | 
COCC(=O)O[C@]1(CCN(C)CCCc2nc3ccccc3[nH]2)CCc2cc(F)ccc2[C@@H]1C(C)C [Mibefradil] | 1.21 | 9.82 | 1.30 ± 0.1 °C | 12.9 µM | 
Fc1ccc([C@@H]2CCNC[C@H]2COc2ccc3c(c2)OCO3)cc1 [Paroxetine, (3S,4R)-3-[(2H-1,3-benzodioxol-5-yloxy)methyl]-4-(4-fluorophenyl)piperidine] |  |  |  |  | In Vivo PLD (phospholipidosis [2]): R; IC50 [4, 8]: 5.12 µM
NC(=O)C1(N2CCCCC2)CCN(CCCC(=O)c2ccc(F)cc2)CC1 [Pipamperone] | 0.37 | 8.96 | 0.83 ± 0.1 °C | 250 µM | 
C=C[C@H]1C[N@@]2CC[C@H]1C[C@H]2[C@H](O)c1ccnc2ccc(OC)cc12 [Quinine, (R)-[(1S,2S,4S,5R)-5-ethenyl-1-azabicyclo [2.2.2]octan-2-yl](6-methoxyquinolin-4-yl)methanol] |  |  | -1.00 ± 0.1 °C |  | In Vivo PLD (phospholipidosis [2]): Yes; IC50 [4, 8]: 164 µM
Cc1nc2sccn2c(=O)c1CCN1CCC(=C(c2ccc(F)cc2)c2ccc(F)cc2)CC1 [Ritanserin] | 0.19 | 8 | -1.90 ± 02 °C | 13.4 µM | 
COc1ccc(C2CNC(=O)C2)cc1OC1CCCC1 (stereo not drawn) [Rolipram] | 0.19 | -1.9 | -1.85 ± 0.9 °C | 300 µM | 
CCCCCCCCNC(C)C(O)c1ccc(SC(C)C)cc1 (stereo not drawn) [Suloctidil] | 0.66 | 9.76 | 2.00 ± 0.2 °C | 6.82 µM | 
CCN1CCCC1CNC(=O)c1cc(S(N)(=O)=O)ccc1OC (stereo not drawn) [Sulpiride, N-[(1-ethylpyrrolidin-2-yl)methyl]-2-methoxy-5-sulfamoylbenzamide] |  |  | 1.34 ± 0.9 °C |  | In Vivo PLD (phospholipidosis [2]): Yes; pKa (basic) [3, 7]: 8.4; LPLA2 inhibition (in words) ([4]; acyl transferase activity): no inhibitory activity
CN1CCN(CCCN2c3ccccc3Sc3ccc(C(F)(F)F)cc32)CC1 [Trifluoperazine] | 0.81 | 8.39 |  | 6.87 µM | (ΔTm)c-(ΔTm)d, difference in melting temperature of LPLA2 alone or in the presence of drug (LPLA2): 0.49 ± 0.3 °C
Cc1cc(C(C)(C)C)cc(C)c1CC1=NCCN1 [Xylometazoline] | 0.16 | 10.29 | 0.66 ± 0.0 °C | 44.3 µM | 
CC[C@H](NC(=O)c1c(C)c(-c2ccccc2)nc2ccccc12)c1ccccc1 [sb222200] | 0.34 | 9.57 | -1.20 ± 0.1 °C | 14.9 µM | 
